Data reported in patent publication US20240335442A1 (Eurofarma Laboratórios S.A., priority 2021, published 2024).

Legend:
[1] = target: human sodium channel Nav 1.7 (Homo sapiens (Human), UniProt Q15858); assay: Automated whole-cell voltage-clamp (ScreenPatch 384P), Nav 1.7 sodium current, Protocol 2; type: cell-based; conditions: read-out: Nav1.7 IC50
Method in brief: (§1)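 Peak TP1A sodium current block, scaled between DMSO vehicle and positive control, was fitted with a Hill equation to give IC50 at eight compound concentrations (≥5 min, room temperature) in stable CHO lines. Protocol 2 (0.05 Hz) used an 8 s −40 mV inactivating prepulse from −100 mV; Protocol 1 (0.1 Hz) held at −90 mV; test steps 10 mV for Nav1.8, 0 mV for Nav1.7.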

[2] = target: human sodium channel Nav 1.8 (Homo sapiens (Human), UniProt Q9Y5Y9); assay: Automated whole-cell voltage-clamp (ScreenPatch 384P), Nav 1.8 sodium current, Protocol 2; type: cell-based; conditions: read-out: Nav1.8 IC50
Method in brief: as §1

Sequence of human sodium channel Nav 1.8 (Q9Y5Y9 whole entry): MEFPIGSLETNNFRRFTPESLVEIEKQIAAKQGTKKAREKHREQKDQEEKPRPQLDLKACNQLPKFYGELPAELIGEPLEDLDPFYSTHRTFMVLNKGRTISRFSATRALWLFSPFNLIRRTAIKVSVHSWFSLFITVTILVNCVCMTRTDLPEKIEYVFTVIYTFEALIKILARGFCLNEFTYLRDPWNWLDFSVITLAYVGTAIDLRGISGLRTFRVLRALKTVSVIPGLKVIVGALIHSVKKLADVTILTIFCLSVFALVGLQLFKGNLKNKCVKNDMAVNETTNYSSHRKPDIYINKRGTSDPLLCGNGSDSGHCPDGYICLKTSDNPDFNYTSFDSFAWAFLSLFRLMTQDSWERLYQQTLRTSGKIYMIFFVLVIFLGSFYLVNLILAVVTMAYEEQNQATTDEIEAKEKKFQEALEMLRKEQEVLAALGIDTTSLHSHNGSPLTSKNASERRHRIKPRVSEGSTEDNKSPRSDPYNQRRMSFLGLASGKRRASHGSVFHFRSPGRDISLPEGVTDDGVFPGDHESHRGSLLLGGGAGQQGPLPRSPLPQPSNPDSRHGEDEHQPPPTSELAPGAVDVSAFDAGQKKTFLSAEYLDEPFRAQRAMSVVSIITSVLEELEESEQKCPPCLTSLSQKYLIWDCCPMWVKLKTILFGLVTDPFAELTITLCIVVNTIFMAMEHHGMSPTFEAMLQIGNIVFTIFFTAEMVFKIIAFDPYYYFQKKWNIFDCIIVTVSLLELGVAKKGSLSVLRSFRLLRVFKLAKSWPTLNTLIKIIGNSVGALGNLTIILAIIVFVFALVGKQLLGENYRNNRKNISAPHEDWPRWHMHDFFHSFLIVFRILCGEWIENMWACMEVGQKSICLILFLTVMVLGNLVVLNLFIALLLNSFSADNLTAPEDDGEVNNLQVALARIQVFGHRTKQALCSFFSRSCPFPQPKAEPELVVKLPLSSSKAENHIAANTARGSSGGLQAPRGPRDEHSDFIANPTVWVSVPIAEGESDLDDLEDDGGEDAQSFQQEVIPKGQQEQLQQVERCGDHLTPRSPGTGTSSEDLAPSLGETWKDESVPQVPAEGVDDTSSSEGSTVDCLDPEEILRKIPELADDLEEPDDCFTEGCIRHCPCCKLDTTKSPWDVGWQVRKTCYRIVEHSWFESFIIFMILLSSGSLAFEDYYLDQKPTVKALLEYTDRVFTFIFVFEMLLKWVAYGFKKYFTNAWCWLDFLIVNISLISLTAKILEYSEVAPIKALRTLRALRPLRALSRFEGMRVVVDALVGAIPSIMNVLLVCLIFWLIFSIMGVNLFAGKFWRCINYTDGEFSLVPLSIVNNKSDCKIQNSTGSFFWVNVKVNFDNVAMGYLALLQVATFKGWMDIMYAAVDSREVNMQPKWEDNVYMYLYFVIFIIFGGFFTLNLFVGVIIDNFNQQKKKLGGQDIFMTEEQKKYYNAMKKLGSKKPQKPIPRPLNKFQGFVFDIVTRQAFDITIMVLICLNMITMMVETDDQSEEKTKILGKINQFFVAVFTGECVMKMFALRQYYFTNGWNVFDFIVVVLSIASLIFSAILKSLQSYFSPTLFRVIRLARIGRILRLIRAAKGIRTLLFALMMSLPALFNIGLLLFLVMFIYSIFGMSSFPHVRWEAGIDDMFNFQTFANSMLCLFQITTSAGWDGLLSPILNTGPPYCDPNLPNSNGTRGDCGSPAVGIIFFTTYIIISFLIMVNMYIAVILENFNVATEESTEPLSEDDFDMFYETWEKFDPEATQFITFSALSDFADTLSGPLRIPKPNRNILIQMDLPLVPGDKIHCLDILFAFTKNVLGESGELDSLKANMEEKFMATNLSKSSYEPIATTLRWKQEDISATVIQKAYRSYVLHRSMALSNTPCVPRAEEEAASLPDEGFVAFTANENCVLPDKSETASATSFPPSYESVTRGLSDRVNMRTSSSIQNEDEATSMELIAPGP
Sequence of human sodium channel Nav 1.7 (Q15858 whole entry): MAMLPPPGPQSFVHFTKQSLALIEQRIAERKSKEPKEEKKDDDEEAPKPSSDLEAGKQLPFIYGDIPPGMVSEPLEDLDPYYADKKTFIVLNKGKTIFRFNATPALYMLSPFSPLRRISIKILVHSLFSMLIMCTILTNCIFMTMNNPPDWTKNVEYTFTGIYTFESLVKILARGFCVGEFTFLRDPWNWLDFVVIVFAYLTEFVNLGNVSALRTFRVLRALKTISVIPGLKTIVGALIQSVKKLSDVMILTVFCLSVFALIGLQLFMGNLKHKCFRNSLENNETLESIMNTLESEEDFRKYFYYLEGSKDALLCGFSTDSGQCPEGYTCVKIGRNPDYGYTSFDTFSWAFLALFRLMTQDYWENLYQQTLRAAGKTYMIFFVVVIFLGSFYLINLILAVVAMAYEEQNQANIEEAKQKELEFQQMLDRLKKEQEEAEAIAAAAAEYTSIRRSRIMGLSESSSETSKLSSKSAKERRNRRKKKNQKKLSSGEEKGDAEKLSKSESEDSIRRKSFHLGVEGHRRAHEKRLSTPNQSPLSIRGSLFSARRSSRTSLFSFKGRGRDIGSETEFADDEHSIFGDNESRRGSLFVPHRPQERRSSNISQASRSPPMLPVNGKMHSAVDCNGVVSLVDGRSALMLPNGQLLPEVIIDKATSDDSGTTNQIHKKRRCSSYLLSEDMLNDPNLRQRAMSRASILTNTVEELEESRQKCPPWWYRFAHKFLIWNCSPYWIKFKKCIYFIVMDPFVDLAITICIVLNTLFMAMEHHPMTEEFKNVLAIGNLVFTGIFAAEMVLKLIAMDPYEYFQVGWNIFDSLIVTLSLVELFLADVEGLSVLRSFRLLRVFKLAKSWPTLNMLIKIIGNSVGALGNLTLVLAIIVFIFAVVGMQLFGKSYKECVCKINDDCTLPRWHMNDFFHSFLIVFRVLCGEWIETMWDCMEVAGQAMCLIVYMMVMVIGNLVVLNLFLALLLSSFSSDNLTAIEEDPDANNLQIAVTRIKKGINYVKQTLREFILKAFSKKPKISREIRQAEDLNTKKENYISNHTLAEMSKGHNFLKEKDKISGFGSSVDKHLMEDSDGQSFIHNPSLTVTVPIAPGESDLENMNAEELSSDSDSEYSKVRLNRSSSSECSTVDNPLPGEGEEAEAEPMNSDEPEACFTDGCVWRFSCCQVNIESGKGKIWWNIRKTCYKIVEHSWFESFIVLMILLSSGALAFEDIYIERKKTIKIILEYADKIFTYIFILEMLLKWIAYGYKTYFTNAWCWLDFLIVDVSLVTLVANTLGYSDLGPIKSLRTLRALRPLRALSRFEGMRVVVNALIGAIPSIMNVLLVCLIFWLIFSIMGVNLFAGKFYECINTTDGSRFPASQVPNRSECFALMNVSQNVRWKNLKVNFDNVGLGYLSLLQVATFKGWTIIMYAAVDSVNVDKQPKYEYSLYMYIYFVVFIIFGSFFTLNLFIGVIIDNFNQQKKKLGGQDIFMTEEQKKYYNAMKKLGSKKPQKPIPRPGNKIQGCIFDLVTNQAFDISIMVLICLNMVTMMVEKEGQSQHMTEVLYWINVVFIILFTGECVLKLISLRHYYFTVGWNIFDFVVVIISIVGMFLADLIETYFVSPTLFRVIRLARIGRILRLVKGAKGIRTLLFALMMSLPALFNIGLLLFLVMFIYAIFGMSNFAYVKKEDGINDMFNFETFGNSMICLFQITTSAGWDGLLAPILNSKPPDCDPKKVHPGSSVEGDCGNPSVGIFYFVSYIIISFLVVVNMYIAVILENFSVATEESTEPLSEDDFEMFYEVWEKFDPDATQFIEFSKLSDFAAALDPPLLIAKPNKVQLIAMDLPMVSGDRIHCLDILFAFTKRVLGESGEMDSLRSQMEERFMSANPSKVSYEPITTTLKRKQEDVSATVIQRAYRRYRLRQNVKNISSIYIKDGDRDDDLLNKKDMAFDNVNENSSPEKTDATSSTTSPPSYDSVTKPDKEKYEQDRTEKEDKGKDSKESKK

| SMILES | IC50 [1] | IC50 [2] |
| --- | --- | --- |
| COc1cc(/C=N/NC(=O)c2cncc(OC)n2)cc(OC)c1 [Compound 140, (E)-N′-(3,5-dimethoxybenzylidene)-6-methoxypyrazine-2-carbohydrazide] | > 10000 nM | > 1000 nM |
| COc1cc(/C=N/NC(=O)c2nccnc2OC)cc(OC)c1 [Compound 141, (E)-N′-(3,5-dimethoxybenzylidene)-3-methoxypyrazine-2-carbohydrazide] | > 10000 nM | > 1000 nM |
| COc1cc(/C=N/NC(=O)c2cnc(OC)cn2)cc(OC)c1 [Compound 142, (E)-N′-(3,5-dimethoxybenzylidene)-5-methoxypyrazine-2-carbohydrazide] | > 10000 nM | > 1000 nM |
| CCOc1ccc(-c2cnc(C)c(C(=O)N/N=C/c3cc(OC)cc(OC)c3)n2)cc1 [Compound 143, (E)-N′-(3,5-dimethoxybenzylidene)-6-(4-ethoxyphenyl)-3-methylpyrazine-2-carbohydrazide] | 5150 nM | 650 nM |
| CCOc1ccc(-c2cnc(CC)c(C(=O)N/N=C/c3cc(OC)cc(OC)c3)n2)cc1 [Compound 144, (E)-N′-(3,5-dimethoxybenzylidene)-6-(4-ethoxyphenyl)-3-ethylpyrazine-2-carbohydrazide] | > 300 nM | > 300 nM |
| CCOc1ccc(-c2cnc(OC)c(C(=O)N/N=C/c3cc(OC)cc(OC)c3)n2)cc1 [Compound 145, (E)-N′-(3,5-dimethoxybenzylidene)-6-(4-ethoxyphenyl)-3-methoxypyrazine-2-carbohydrazide] | > 300 nM | > 300 nM |
| CCOc1ccc(-c2cnc(Oc3ccccc3)c(C(=O)N/N=C/c3cc(OC)cc(OC)c3)n2)cc1 [Compound 146, (E)-N′-(3,5-dimethoxybenzylidene)-6-(4-ethoxyphenyl)-3-phenoxypyrazine-2-carbohydrazide] | > 300 nM | > 300 nM |
| CCOc1ccc(-c2cnc(-c3ccccc3)c(C(=O)N/N=C/c3cc(OC)cc(OC)c3)n2)cc1 [Compound 147, (E)-N′-(3,5-dimethoxybenzylidene)-6-(4-ethoxyphenyl)-3-phenylpyrazine-2-carbohydrazide] | > 300 nM | > 300 nM |
| COc1cc(/C=N/NC(=O)c2cncc(-c3ccc(OCSC)cc3)n2)cc(OC)c1 [Compound 149, (E)-N′-(3,5-dimethoxybenzylidene)-6-(4-((methylthio)methoxy)phenyl)pyrazine-2-carbohydrazide] | 123 nM | 60.9 nM |
| Cc1cc(C)cc(/C=N/NC(=O)c2cncc(-c3ccc(OC4CCCC4)cc3)n2)c1 [Compound 150, (E)-6-(4-(cyclopentyloxy)phenyl)-N′-(3,5-dimethylbenzylidene)pyrazine-2-carbohydrazide] | 121 nM | 118 nM |
| COc1cc(/C=N/NC(=O)c2cncc(-c3ccc(OCCN(C)C)cc3)n2)cc(OC)c1 [Compound 151, (E)-N′-(3,5-dimethoxybenzylidene)-6-(4-(2-(dimethylamino)ethoxy)phenyl)pyrazine-2-carbohydrazide] | > 10000 nM | > 1000 nM |
| COc1cc(/C=N/NC(=O)c2cncc(-c3ccc(OCC4CC4)cc3)n2)cc(OC)c1 [Compound 152, (E)-6-(4-(cyclopropylmethoxy)phenyl)-N′-(3,5-dimethoxybenzylidene)pyrazine-2-carbohydrazide] | 138 nM | 88.4 nM |
| CCOc1ccc(-c2cncc(C(=O)N/N=C/c3cccc(OC)c3)n2)c(OCC)c1 [Compound 153, (E)-6-(2,4-diethoxyphenyl)-N′-(3-methoxybenzylidene)pyrazine-2-carbohydrazide] | 228 nM | 121 nM |
| CCOc1ccc(-c2cncc(C(=O)N/N=C/c3cccc(OC)c3)n2)c(OC(C)C)c1 [Compound 154, (E)-6-(4-ethoxy-2-isopropoxyphenyl)-N′-(3-methoxybenzylidene)pyrazine-2-carbohydrazide] | 1390 nM | > 1000 nM |
| COc1cc(/C=N/NC(=O)c2cncc(-c3ccc(OC)cc3OC(C)C)n2)cc(OC)c1 [Compound 156, (E)-N′-(3,5-dimethoxybenzylidene)-6-(2-isopropxy-4-methoxyphenyl)pyrazine-2-carbohydrazide] | 4790 nM | > 1000 nM |
| COc1cc(/C=N/NC(=O)c2cncc(-c3ccc(OC4CCCC4)cc3Cl)n2)cc(OC)c1 [Compound 157, (E)-6-(2-chloro-4-(cyclopentyloxy)phenyl)-N′-(3,5-dimethoxybenzylidene)pyrazine-2-carbohydrazide] | 180 nM | 456 nM |
| CCCCOc1ccc(-c2cncc(C(=O)N/N=C/c3cc(OC)cc(OC)c3)n2)c(Cl)c1 [Compound 158, (E)-6-(4-butoxy-2-chlorophenyl)-N′-(3,5-dimethoxybenzylidene)pyrazine-2-carbohydrazide] | 245 nM | 282 nM |
| COc1cc(/C=N/NC(=O)c2cncc(-c3ccc(OCC(C)C)cc3Cl)n2)cc(OC)c1 [Compound 159, (E)-6-(2-chloro-4-isobutoxyphenyl)-N′-(3,5-dimethoxybenzylidene)pyrazine-2-carbohydrazide] | 217 nM | 293 nM |

| SMILES | IC50 [1] | IC50 [2] |
| --- | --- | --- |
| COc1cc(/C=N/NC(=O)c2cncc(-c3ccc(OC)cc3OCCN(C)C)n2)cc(OC)c1 [Compound 160, (E)-N′-(3,5-dimethoxybenzylidene)-6-(2-(2-(dimethylamino)ethoxy)-4-methoxyphenol)pyrazine-2-carbohydrazide] | > 10000 nM | > 1000 nM |
| COc1cc(/C=N/NC(=O)c2cncc(-c3ccccc3OC3CCCC3)n2)cc(OC)c1 [Compound 161, (E)-6-(2-(cyclopentyloxy)phenyl)-N′-(3,5-dimethoxybenzylidene)pyrazine-2-carbohydrazide] | > 10000 nM | > 1000 nM |
| COc1cc(/C=N/NC(=O)c2cncc(Cl)n2)cc(OC)c1 [Compound 163, (E)-6-chloro-N′-(3,5-dimethoxybenzylidene)pyrazine-2-carbohydrazide] | > 10000 nM | > 1000 nM |
| COc1cc(/C=N/NC(=O)c2cnc(Cl)cn2)cc(OC)c1 [Compound 164, (E)-5-chloro-N′-(3,5-dimethoxybenzylidene)pyrazine-2-carbohydrazide] | > 10000 nM | > 1000 nM |
| COc1cc(/C=N/NC(=O)c2nccnc2Cl)cc(OC)c1 [Compound 165, (E)-3-chloro-N′-(3,5-dimethoxybenzylidene)pyrazine-2-carbohydrazide] | > 10000 nM | > 1000 nM |
| CCc1cnc(C(=O)N/N=C/c2cc(OC)cc(OC)c2)cn1 [Compound 167, (E)-N′-(3,5-dimethoxybenzylidene)-5-ethylpyrazine-2-carbohydrazide] | > 10000 nM | > 1000 nM |
| COc1ccc(-c2cncc(C(=O)N(C)/N=C/c3cc(OC)cc(OC)c3)n2)cc1 [Compound 168, (E)-N′-(3,5-dimethoxybenzylidene)-6-(4-methoxyphenyl)-N-methylpyrazine-2-carbohydrazide] | > 10000 nM | > 1000 nM |
| COc1cc(/C=N/NC(=O)c2cncc(N3CCC(F)(F)C(C)C3)n2)cc(OC)c1 (stereo not drawn) [Compound 169, (E)-6-(4,4-difluoro-3-methylpiperidin-1-yl)-N′-(3,5-dimethoxybenzylidene)pyrazine-2-carbohydrazide] | > 10000 nM | > 1000 nM |
| CCOc1ccc(-c2cncc(C(=O)N/N=C/c3ccccc3)n2)cc1 [Compound 170, (E)-N′-benzylidene-6-(4-ethoxyphenyl)pyrazine-2-carbohydrazide] | > 10000 nM | > 1000 nM |
| CCOc1ccc(-c2cncc(C(=O)N/N=C/C3CCCCC3)n2)cc1 [Compound 171, (E)-N′-(cyclohexylmethylene)-6-(4-ethoxyphenyl)pyrazine-2-carbohydrazide] | > 10000 nM | > 1000 nM |
| CCOc1ccc(-c2cncc(C(=O)N/N=C/C3CCC(F)(F)CC3)n2)cc1 [Compound 172, (E)-N′-((4,4-diflurocyclohexyl)methylene)-6-(4-ethoxyphenyl)pyrazine-2-carbohydrazide] | > 10000 nM | 573 nM |
| COc1ccc(-c2cncc(C(=O)N/N=C/C3CCCCC3)n2)cc1 [Compound 173, (E)-N′-(cyclohexylmethylene)-6-(4-methoxyphenyl)pyrazine-2-carbohydrazide] | > 10000 nM | 629 nM |
| CC(C)Oc1ccc(-c2cncc(C(=O)N/N=C/C3CCCCC3)n2)cc1 [Compound 175, (E)-N′-(cyclohexylmethylene)-6-(4-isopropoxyphenyl)pyrazine-2-carbohydrazide] | 110 nM | 361 nM |
| COc1cc(/C=N/NC(=O)c2cncc(-c3ccc(C(F)F)cc3)n2)cc(OC)c1 [Compound 177, (E)-6-(4-(difluoromethyl)phenyl)-N′-(3,5-dimethoxybenzylidene)pyrazine-2-carbohydrazide] | > 1000 nM | 963 nM |
| COc1ccc(-c2cncc(C(=O)N/N=C/c3ccccc3)n2)cc1 [Compound 178, (E)-N′-benzylidene-6-(4-methoxyphenyl)pyrazine-2-carbohydrazide] | 3190 nM | 358 nM |
| COc1cc(/C=N/NC(=O)c2cncc(N3CCCC(F)(F)CC3)n2)cc(OC)c1 [Compound 179, (E)-6-(4,4-difluoroazepan-1-yl)-N′-(3,5-dimethoxybenzylidene)pyrazine-2-carbohydrazide] | > 10000 nM | > 1000 nM |
| COc1cc(/C=N/NC(=O)c2cncc(N3CCC(F)(F)CC3)n2)cc(OC)c1 [Compound 180, (E)-6-(4,4-difluoropiperidin-1-yl)-N′-(3,5-dimethoxybenzylidene)pyrazine-2-carbohyrazide] | > 10000 nM | > 1000 nM |
| COc1ccc(-c2cncc(C(=O)N/N=C/C3CCCCCC3)n2)cc1 [Compound 181, (E)-N′-(cycloheptylmethylene)-6-(4-methoxyphenyl)pyrazine-2-carbohydrazide] | 6410 nM | 320 nM |
